Assay results published in ChEMBL document CHEMBL1201862, “PubChem BioAssay data set” (2004).
Activity calls are given as the source filed them.

What was measured:
[1] = biological target: Troponin, cardiac muscle (Homo sapiens, UniProt P19429+P45379+P63316); experiment: Fluorescence-based biochemical high throughput dose response assay for activators of the calcium sensitivity of cardiac Regulated Thin Filaments (RTF). [Related pubchem assays (depositor defined):AID493008, AID493018, AID504382, AID504383]; format: protein-complex assay
[2] = biological target: T1, Sentrin-specific protease 1 (Homo sapiens, UniProt Q9P0U3); experiment: SENP1 catalytic domain blockers, concentration series – biochemical, kinetic FRET, dose response (AID 651697); format: functional; conditions: read-out: IC50_Mean
[3] = biological target: T1, Sentrin-specific protease 1; experiment: Dose response confirmation of small molecule inhibitors of the catalytic domain of the SUMO protease, SENP1 in a FRET assay.; format: functional; conditions: read-out: IC50_Mean
[4] = cytotoxicity toward MDA-MB-231 breast cancer cells – cell-based, CellTiter-Glo luminescence, cherry-pick, cytotoxicity control for RAD54 inhibitor project, dose response (AID 651692); format: functional
[5] = biological target: T2, DNA repair and recombination protein RAD54-like (Homo sapiens, UniProt Q92698); experiment: RAD54 Holliday junction migration blockers – biochemical, fluorescence, cherry-picked samples, dose series, confirmation (AID 651657); format: functional
T2 sequence (Q92698 whole entry): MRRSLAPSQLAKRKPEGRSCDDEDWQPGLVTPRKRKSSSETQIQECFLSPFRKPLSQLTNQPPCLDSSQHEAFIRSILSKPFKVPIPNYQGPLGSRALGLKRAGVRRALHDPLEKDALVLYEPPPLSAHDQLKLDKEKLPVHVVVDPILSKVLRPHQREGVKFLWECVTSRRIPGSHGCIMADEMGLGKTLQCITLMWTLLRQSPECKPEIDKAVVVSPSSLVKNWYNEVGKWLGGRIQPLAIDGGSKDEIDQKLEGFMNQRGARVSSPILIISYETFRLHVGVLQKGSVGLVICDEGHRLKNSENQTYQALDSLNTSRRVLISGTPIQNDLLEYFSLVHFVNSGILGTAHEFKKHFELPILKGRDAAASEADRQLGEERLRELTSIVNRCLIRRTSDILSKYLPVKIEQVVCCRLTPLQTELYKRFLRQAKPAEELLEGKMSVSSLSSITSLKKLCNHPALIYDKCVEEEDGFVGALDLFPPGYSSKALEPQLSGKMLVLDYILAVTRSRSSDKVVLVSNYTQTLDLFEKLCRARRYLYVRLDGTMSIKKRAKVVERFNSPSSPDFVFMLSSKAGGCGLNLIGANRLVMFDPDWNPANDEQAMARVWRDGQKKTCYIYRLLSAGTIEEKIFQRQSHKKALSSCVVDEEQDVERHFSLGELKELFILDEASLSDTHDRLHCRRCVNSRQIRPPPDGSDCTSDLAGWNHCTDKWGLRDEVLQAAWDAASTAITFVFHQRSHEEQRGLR

[6] = biological target: T3, DNA repair protein RAD52 homolog (Homo sapiens, UniProt P43351); format: functional, biochemical
T3 sequence (P43351 whole entry): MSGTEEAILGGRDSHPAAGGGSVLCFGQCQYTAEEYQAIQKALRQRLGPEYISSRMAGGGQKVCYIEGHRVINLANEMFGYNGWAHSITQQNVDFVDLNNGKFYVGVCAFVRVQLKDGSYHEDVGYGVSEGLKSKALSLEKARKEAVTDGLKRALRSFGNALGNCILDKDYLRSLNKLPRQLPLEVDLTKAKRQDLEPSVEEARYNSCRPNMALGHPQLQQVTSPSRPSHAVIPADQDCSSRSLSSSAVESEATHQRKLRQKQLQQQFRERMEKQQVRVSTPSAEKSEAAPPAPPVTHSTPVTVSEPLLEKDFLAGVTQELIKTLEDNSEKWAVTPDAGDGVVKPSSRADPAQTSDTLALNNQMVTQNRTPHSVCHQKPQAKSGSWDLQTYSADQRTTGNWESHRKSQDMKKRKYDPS

[7] = biological target: T4, Sentrin-specific protease 8 (Homo sapiens, UniProt Q96LD8); format: functional
T4 sequence (Q96LD8 whole entry): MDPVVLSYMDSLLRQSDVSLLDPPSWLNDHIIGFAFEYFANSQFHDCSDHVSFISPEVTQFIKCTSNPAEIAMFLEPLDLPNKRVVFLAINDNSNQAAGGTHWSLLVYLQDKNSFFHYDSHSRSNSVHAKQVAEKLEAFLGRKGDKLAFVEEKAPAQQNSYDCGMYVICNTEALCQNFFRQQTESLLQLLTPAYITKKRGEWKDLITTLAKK

[8] = biological target: T4, Sentrin-specific protease 8; format: functional; remark: listed apart in the source
[9] = biological target: Beta-galactosidase (Escherichia coli, UniProt Q8VNN2); experiment: PubChem AID 485352; format: functional
[10] = biological target: G-protein coupled receptor 55 (Homo sapiens, UniProt Q9Y2T6); experiment: inhibition of LPI-stimulated GPR55 beta-arrestin translocation – imaging, U2OS, beta-arrestin-GFP, LPI agonist, primary screen (AID 2013); format: functional;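 note: antagonist potency measured as reduced agonist-driven arrestin aggregation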
[11] = Trypanosoma cruzi growth suppression in host cells – NIH3T3 host cells, beta-gal luminescence, confirmation (AID 2044); format: functional, cell-based;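 note: intracellular parasites grown in NIH/3T3 mouse fibroblasts as host cells; luminescent beta-galactosidase reporter signal from transgenic T. cruzi replicating inside host cells; inhibitors lower the luminescence signal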
[12] = biological target: T5, Type-1 angiotensin II receptor (Homo sapiens, UniProt P30556); experiment: antagonism of angiotensin II type 1 receptor – cell-based, uHTS hits, selectivity assay for APJ receptor antagonist project, dose response (AID 463214); format: functional;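 note: antagonist potency against angiotensin II stimulated AT1 response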
T5 sequence (P30556 whole entry): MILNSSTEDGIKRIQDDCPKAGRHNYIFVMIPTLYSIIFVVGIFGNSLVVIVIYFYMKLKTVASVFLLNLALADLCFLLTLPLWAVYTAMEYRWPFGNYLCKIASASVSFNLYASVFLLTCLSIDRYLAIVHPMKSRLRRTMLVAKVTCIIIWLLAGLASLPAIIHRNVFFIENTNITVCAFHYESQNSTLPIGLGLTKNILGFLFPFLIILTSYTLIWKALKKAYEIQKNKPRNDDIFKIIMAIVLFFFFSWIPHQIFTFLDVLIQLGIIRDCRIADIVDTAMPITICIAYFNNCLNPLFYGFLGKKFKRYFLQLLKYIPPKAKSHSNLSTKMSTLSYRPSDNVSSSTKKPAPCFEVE

[13] = NIH3T3 cell viability loss – ATP luminescence, mouse fibroblasts, counter-screen, dose response (AID 2010); format: functional, cell-based;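 note: cells exposed to compound for about 90 hours before reading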
[14] = biological target: T6, Replicative DNA helicase DnaB (Mycobacterium tuberculosis, UniProt P9WMR3); experiment: DnaB intein splicing inhibitors, dose response, biochemical, cell-free fluorescence (AID 449749); format: functional
T6 sequence (P9WMR3 whole entry): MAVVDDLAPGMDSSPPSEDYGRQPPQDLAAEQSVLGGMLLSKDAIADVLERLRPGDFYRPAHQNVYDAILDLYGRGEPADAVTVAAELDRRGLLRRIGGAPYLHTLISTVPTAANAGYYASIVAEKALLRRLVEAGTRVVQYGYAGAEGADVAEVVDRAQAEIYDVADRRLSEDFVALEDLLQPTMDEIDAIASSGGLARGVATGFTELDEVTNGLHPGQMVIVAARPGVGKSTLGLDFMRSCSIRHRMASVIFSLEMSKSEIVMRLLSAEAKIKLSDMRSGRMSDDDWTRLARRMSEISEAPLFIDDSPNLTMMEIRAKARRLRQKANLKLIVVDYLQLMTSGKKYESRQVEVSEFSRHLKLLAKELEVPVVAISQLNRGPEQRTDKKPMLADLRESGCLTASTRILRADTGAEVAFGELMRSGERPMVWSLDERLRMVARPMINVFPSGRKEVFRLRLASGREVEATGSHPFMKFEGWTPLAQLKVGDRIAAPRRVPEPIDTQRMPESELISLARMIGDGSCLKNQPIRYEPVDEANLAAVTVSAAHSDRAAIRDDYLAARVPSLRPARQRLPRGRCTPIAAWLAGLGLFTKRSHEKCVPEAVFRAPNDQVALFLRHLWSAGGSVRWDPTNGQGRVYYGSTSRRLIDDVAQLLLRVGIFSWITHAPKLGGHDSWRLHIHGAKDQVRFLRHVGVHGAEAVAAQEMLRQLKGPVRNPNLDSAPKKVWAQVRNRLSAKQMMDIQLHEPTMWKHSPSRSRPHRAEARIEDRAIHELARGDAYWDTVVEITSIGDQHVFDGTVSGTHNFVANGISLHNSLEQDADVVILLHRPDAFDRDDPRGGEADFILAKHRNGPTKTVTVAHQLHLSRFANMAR

[15] = biological target: T7, Protein RecA (Mycobacterium tuberculosis, UniProt P9WHJ3); experiment: Fluorescence Cell-Free Homogeneous Dose Retest to Identify Inhibitors of RecA-Intein Splicing Activity. [Related pubchem assays (depositor defined):AID2097, AID2223, AID489010, AID492950]; format: functional
T7 sequence (P9WHJ3 whole entry): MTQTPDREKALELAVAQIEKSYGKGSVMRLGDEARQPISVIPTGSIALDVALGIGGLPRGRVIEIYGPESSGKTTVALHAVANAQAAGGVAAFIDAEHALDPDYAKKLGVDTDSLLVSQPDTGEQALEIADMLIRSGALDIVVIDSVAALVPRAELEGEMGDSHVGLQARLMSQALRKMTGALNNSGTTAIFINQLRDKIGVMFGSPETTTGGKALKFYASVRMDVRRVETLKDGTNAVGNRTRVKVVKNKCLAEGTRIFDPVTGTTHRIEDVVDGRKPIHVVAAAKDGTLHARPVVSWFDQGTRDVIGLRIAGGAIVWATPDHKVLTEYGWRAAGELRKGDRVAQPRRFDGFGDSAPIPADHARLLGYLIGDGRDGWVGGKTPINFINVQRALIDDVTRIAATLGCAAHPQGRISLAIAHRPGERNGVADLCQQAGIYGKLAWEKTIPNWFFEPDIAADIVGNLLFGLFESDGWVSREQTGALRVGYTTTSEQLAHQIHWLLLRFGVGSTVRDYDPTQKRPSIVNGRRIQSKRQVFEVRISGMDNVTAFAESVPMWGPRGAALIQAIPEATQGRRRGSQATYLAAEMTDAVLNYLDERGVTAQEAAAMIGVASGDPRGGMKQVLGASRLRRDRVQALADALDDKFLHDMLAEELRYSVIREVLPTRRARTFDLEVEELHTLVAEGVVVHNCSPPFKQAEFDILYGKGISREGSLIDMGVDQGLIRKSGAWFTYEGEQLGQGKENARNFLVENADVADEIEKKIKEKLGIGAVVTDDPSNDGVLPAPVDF

[16] = Fluorescence-based cell-based high throughput dose response assay for inhibitors of the interaction of nucleotide-binding oligomerization domain containing 2 (NOD2) and the receptor-interacting serine-threonine kinase 2 (RIPK2).; format: functional; conditions: Homo sapiens
[17] = biological target: Beta Lactamase (Pseudomonas aeruginosa, UniProt Q932Y6); experiment: BLA reporter interference, concentration series – BLA reporter cells, FRET fluorescence, artefact control for NOD2-RIPK2 interaction inhibitor project, dose response (AID 651552); format: functional, cell-based
[18] = activation of miR-122 Renilla sensor silencing – cell-based, Huh7 psiCHECK-miR122, Renilla luciferase, cherry-picked, dose response (AID 651956); format: functional;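 note: huh7 hepatoma cells stably carrying a psiCHECK-2 miR-122 sensor plasmid; renilla luciferase signal reporting endogenous miR-122 activity after 48 h compound exposure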
[19] = A549 cell cytotoxicity, dose response, cytotoxicity control, plate reader, cherry-pick, antagonist series (AID 743412); format: functional, cell-based
[20] = toxicity toward HepG2 liver cells – cell-based, plate reader, cherry-pick, antagonist series, cytotoxicity control, dose response (AID 743416); format: functional
[21] = blockers of bursicon-stimulated LGR2 cAMP reporter – cell-based, HEK293, CRE-luciferase reporter, cherry pick, set 2, dose response (AID 743343); format: functional;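 note: transfected cells were stimulated with diluted bursicon conditioned medium after compound addition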
[22] = general mammalian cell viability loss – inhibitor set, cherry-pick, set 2, cytotoxicity control for miR-122 modulator project, dose response (AID 720697); format: functional, cell-based
[23] = general mammalian cell viability loss – activator set, cherry-pick, cytotoxicity control for miR-122 modulator project, dose response (AID 720690); format: functional, cell-based;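 note: HEK293T human cells scored for general mammalian cytotoxicity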
[24] = blockade of melanocortin 4 receptor signaling – cell-based, plate reader, cherry pick, counter-screen for LGR2 antagonist project, dose response (AID 743444); format: functional;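 note: transfected HEK 293 cells stimulated with alpha-MSH peptide; potency of inhibitors of the alpha-MSH evoked signal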
[25] = viability loss in HEK293 cells – cell-based, plate reader, cherry-picked samples, cytotoxicity control, dose response (AID 743446); format: functional

For CC(=O)Oc1ccc(N2C(=O)C3C(C2=O)C(C(=O)c2ccc(Cl)cc2)N2CCCC32)cc1 (stereo not given), the EC50 [1] was 23.5 µM (inactive), the IC50 [2] was 7.5 µM (active) and the IC50 [3] was 4.65 µM (active).

For CN(C)CCCNc1cc(-c2ccccc2)nc2cc(-c3cccc(F)c3)nn12, the AC50 [4] was 24.4 µM (active), the AC50 [5] was 21.1 µM (active) and the AC50 [6] was 15.1 µM (active).

For Cn1cnc2c(O)ncc([N+](=O)[O-])c21, the IC50 [7] was > 100 µM (inactive) and the IC50 [8] was 10.4 µM (active).

For CNC(=O)c1nnsc1S(=O)(=O)c1ccc(Cl)cc1, the EC50 [9] was > 40 µM (inactive), the IC50 [10] was 10.6 µM (inactive) and the EC50 [11] was 1.24 µM (active). The IC50 [12] was 9.67 µM (active), the EC50 [13] was 2.47 µM (active) and the AC50 [14] was 15.3 µM (active). For the same molecule, the EC50 [15] was 14.3 µM (active), the IC50 [16] was 2.13 µM (active) and the IC50 [17] was 11.3 µM (inactive). For the same molecule, the AC50 [18] was 18.8 µM (active), the AC50 [19] was 8.58 µM (active) and the AC50 [20] was 7.37 µM (active). The AC50 [21] was 3.74 µM (active), the AC50 [22] was 4.54 µM (active) and the AC50 [23] was 2.7 µM (active). The AC50 [24] was 3.28 µM (active) and the AC50 [25] was 7.5 µM (active).
